# Source: patent US20210253557A1, “SUBSTITUTED TRIAZOLE DERIVATIVES AND USES THEREOF” (Bayer Pharma Aktiengesellschaft, priority 2017, published 2021)
# Structures can show the parent of a compound that is named as a salt.
# Legend:
# human V1a receptor = biological target: T1, human V1a receptor (Homo sapiens, UniProt P37288); assay: Cellular in vitro assay for determining vasopressin receptor activity (V1a, aequorin luminescence); type: cell-based; details: for IC50: CHO cell line transfected with the human V1a receptor, [Arg8]-vasopressin at EC50 concentration, read-out: IC50 hV1a; for ratio IC50 hV2/hV1a: selectivity ratio of IC50 hV2 to IC50 hV1a
# T1 construct: expressed in transfected cells; host or cells: CHO K1 (ATCC), also stably transfected with a modified aequorin
# T1 sequence (P37288 whole entry): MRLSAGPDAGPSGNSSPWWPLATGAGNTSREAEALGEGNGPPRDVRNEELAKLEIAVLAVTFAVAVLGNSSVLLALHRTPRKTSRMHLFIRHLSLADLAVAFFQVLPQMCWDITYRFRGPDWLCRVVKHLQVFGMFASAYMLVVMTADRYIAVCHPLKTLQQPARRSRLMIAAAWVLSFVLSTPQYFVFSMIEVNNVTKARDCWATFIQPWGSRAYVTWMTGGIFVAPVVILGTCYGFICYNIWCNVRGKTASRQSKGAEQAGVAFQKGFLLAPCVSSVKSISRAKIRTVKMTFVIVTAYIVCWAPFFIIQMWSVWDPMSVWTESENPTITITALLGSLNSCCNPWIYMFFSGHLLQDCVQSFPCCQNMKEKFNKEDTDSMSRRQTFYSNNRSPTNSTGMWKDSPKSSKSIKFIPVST
# human V2 receptor = biological target: T2, human V2 receptor (Homo sapiens, UniProt P30518); assay: Cellular in vitro assay for determining vasopressin receptor activity (V2, CRE-luciferase); type: cell-based; details: CHO cell line transfected with the human V2 receptor; [Arg8]-vasopressin at EC50 concentration; read-out: IC50 hV2
# T2 construct: expressed in transfected cells; host or cells: CHO K1 (ATCC) expressing firefly luciferase under a CRE-responsive promoter
# T2 sequence (P30518 whole entry): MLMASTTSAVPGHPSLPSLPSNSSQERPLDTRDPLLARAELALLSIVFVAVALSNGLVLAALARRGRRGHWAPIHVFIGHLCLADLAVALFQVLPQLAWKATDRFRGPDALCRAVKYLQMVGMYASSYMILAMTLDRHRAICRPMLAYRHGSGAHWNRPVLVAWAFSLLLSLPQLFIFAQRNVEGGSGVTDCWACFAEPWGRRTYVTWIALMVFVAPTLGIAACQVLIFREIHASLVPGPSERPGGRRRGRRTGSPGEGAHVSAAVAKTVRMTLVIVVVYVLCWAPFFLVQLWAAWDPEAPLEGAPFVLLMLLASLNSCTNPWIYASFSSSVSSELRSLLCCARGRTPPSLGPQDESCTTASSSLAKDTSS
# Outline: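 Antagonism was measured as inhibition of a 3-h, EC50-level [Arg8]-vasopressin stimulation, with compounds tested at several concentrations, yielding IC50 values. The read-out was cAMP-driven CRE-luciferase luminescence after lysis, in recombinant CHO K1 cells carrying human V2 receptor. Cells were seeded in 2% FCS DMEM/F12 one day earlier.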
SMILES,IC50 (human V1a receptor) [nM],ratio IC50 hV2/hV1a (human V1a receptor),IC50 (human V2 receptor) [nM]
"COCCNC(=O)OCc1nc(Cn2nc(-c3ccc(Cl)cc3)n(C[C@H](O)C(F)(F)F)c2=O)nn1-c1ccccc1Cl [Example 48, [1-(2-Chlorophenyl)-3-({3-(4-chlorophenyl)-5-oxo-4-[(2S)-3,3,3-trifluoro-2-hydroxypropyl]-4,5-dihydro-1H-1,2,4-triazol-1-yl}methyl)-1H-1,2,4-triazol-5-yl]methyl (2-methoxyethyl)carbamate]",1.12,5.3,5.91
"COCCNC(=O)OCc1nc(Cn2nc(-c3ccc(Cl)cc3)n(C[C@H](O)C(F)(F)F)c2=O)nn1-c1ccccc1C(F)(F)F [Example 51, {3-({3-(4-Chlorophenyl)-5-oxo-4-[(2S)-3,3,3-trifluoro-2-hydroxypropyl]-4,5-dihydro-1H-1,2,4-triazol-1-yl}methyl)-1-[2-(trifluoromethyl)phenyl]-1H-1,2,4-triazol-5-yl}methyl (2-methoxyethyl)-carbamate]",3.9,7.6,29.7
"C[C@H](NC(=O)OC(C)(C)C)c1nc(Cn2nc(-c3ccc(Cl)cc3)n(C[C@H](O)C(F)(F)F)c2=O)nn1-c1cccc(Cl)c1 [Example 56, tert-Butyl {(1S)-1-[1-(3-chlorophenyl)-3-({3-(4-chlorophenyl)-5-oxo-4-[(2S)-3,3,3-trifluoro-2-hydroxypropyl]-4,5-dihydro-1H-1,2,4-triazol-1-yl}methyl)-1H-1,2,4-triazol-5-yl]ethyl}Carbamate]",286,0.1,33.4
"C[C@H](N)c1nc(Cn2nc(-c3ccc(Cl)cc3)n(C[C@H](O)C(F)(F)F)c2=O)nn1-c1cccc(Cl)c1 [Example 57, 2-({5-[(1S)-1-Aminoethyl]-1-(3-chlorophenyl)-1H-1,2,4-triazol-3-yl}methyl)-5-(4-chlorophenyl)-4-[(2S)-3,3,3-trifluoro-2-hydroxypropyl]-2,4-dihydro-3H-1,2,4-triazol-3-one hydrochloride]",13.1,0.1,1.28
"COC(=O)N[C@@H](C)c1nc(Cn2nc(-c3ccc(Cl)cc3)n(C[C@H](O)C(F)(F)F)c2=O)nn1-c1cccc(Cl)c1 [Example 58, Methyl {(1S)-1-[1-(3-chlorophenyl)-3-({3-(4-chlorophenyl)-5-oxo-4-[(2S)-3,3,3-trifluoro-2-hydroxypropyl]-4,5-dihydro-1H-1,2,4-triazol-1-yl}methyl)-1H-1,2,4-triazol-5-yl]ethyl}Carbamate]",21.4,0.1,1.95
"NC1(c2nc(Cn3nc(-c4ccc(Cl)cc4)n(C[C@H](O)C(F)(F)F)c3=O)nn2-c2ccccc2Cl)CC1 [Example 76, 2-{[5-(1-Aminocyclopropyl)-1-(2-chlorophenyl)-1H-1,2,4-triazol-3-yl]methyl}-5-(4-chlorophenyl)-4-[(2S)-3,3,3-trifluoro-2-hydroxypropyl]-2,4-dihydro-3H-1,2,4-triazol-3-one hydrochloride]",0.48,8.3,3.95
"CC(=O)NC1(c2nc(Cn3nc(-c4ccc(Cl)cc4)n(C[C@H](O)C(F)(F)F)c3=O)nn2-c2ccccc2Cl)CC1 [Example 77, N-{1-[1-(2-Chlorophenyl)-3-({3-(4-chlorophenyl)-5-oxo-4-[(2S)-3,3,3-trifluoro-2-hydroxypropyl]-4,5-dihydro-1H-1,2,4-triazol-1-yl}methyl)-1H-1,2,4-triazol-5-yl]cyclopropyl}acetamide]",6.5,52.3,340
"CN(C)C1(c2nc(Cn3nc(-c4ccc(Cl)cc4)n(C[C@H](O)C(F)(F)F)c3=O)nn2-c2ccccc2Cl)CC1 [Example 79, 5-(4-Chlorophenyl)-2-({1-(2-chlorophenyl)-5-[1-(dimethylamino)cyclopropyl]-1H-1,2,4-triazol-3-yl}methyl)-4-[(2S)-3,3,3-trifluoro-2-hydroxypropyl]-2,4-dihydro-3H-1,2,4-triazol-3-one]",1,14.5,14.5
"O=C1CC[C@@H](c2nc(Cn3nc(-c4ccc(Cl)cc4)n(C[C@H](O)C(F)(F)F)c3=O)nn2-c2ccccc2Cl)N1 [Example 102, 5-(4-Chlorophenyl)-2-({1-(2-chlorophenyl)-5-[(2S)-5-oxopyrrolidin-2-yl]-1H-1,2,4-triazol-3-yl}methyl)-4-[(2S)-3,3,3-trifluoro-2-hydroxypropyl]-2,4-dihydro-3H-1,2,4-triazol-3-one]",0.25,4.8,1.2

# More lines, now with the values ahead:
IC50 (human V1a receptor) [nM],ratio IC50 hV2/hV1a (human V1a receptor),IC50 (human V2 receptor) [nM],SMILES
0.99,16.9,16.7,"CCNC(=O)OCc1nc(Cn2nc(-c3ccc(Cl)cc3)n(C[C@H](O)C(F)(F)F)c2=O)nn1-c1ccccc1C(F)(F)F [Example 49, {3-({3-(4-Chlorophenyl)-5-oxo-4-[(2S)-3,3,3-trifluoro-2-hydroxypropyl]-4,5-dihydro-1H-1,2,4-triazol-1-yl}methyl)-1-[2-(trifluoromethyl)phenyl]-1H-1,2,4-triazol-5-yl}methyl ethylcarbamate]"
0.95,23.0,22,"CCNC(=O)OCc1nc(Cn2nc(-c3ccc(Cl)cc3)n(C[C@H](OC(=O)NCC)C(F)(F)F)c2=O)nn1-c1ccccc1C(F)(F)F [Example 50, (2S)-3-{3-(4-Chlorophenyl)-1-[(5-{[(ethylcarbamoyl)oxy]methyl}-1-[2-(trifluoromethyl)phenyl]-1H-1,2,4-triazol-3-yl)methyl]-5-oxo-1,5-dihydro-4H-1,2,4-triazol-4-yl}-1,1,1-trifluoropropan-2-yl ethylcarbamate]"
2.15,6.5,14,"NC(=O)OCc1nc(Cn2nc(-c3ccc(Cl)cc3)n(C[C@H](O)C(F)(F)F)c2=O)nn1-c1ccccc1C(F)(F)F [Example 52, {3-({3-(4-Chlorophenyl)-5-oxo-4-[(2S)-3,3,3-trifluoro-2-hydroxypropyl]-4,5-dihydro-1H-1,2,4-triazol-1-yl}methyl)-1-[2-(trifluoromethyl)phenyl]-1H-1,2,4-triazol-5-yl}methyl Carbamate]"
1.1,8.8,9.7,"CS(=O)(=O)NC1(c2nc(Cn3nc(-c4ccc(Cl)cc4)n(C[C@H](O)C(F)(F)F)c3=O)nn2-c2ccccc2Cl)CC1 [Example 78, N-{1-[1-(2-Chlorophenyl)-3-({3-(4-chlorophenyl)-5-oxo-4-[(2S)-3,3,3-trifluoro-2-hydroxypropyl]-4,5-dihydro-1H-1,2,4-triazol-1-yl}methyl)-1H-1,2,4-triazol-5-yl]cyclopropyl}methane sulfonamide]"
0.77,4.9,3.8,"O=C1CC[C@H](c2nc(Cn3nc(-c4ccc(Cl)cc4)n(C[C@H](O)C(F)(F)F)c3=O)nn2-c2ccccc2Cl)N1 [Example 101, 5-(4-Chlorophenyl)-2-({1-(2-chlorophenyl)-5-[(2R)-5-oxopyrrolidin-2-yl]-1H-1,2,4-triazol-3-yl}methyl)-4-[(2S)-3,3,3-trifluoro-2-hydroxypropyl]-2,4-dihydro-3H-1,2,4-triazol-3-one]"
1.1,31.5,34.5,"O=C1CC[C@@H](c2nc(Cn3nc(-c4ccc(Cl)cc4)n(C[C@H](O)C(F)(F)F)c3=O)nn2-c2cnccc2Cl)N1 [Example 123, 5-(4-Chlorophenyl)-2-({1-(4-chloropyridin-3-yl)-5-[(2S)-5-oxopyrrolidin-2-yl]-1H-1,2,4-triazol-3-yl}methyl)-4-[(2S)-3,3,3-trifluoro-2-hydroxypropyl]-2,4-dihydro-3H-1,2,4-triazol-3-one]"
